In patent US20090018111A1, “Novel Antimicrobial Medicament” (priority 2004, published 2009):
Read-outs that look alike come from different tables or passages of the source.

What was measured:
S. marcescens GN6473 = experiment: Sensitivity test (agar dilution); type: cell-based, Serratia marcescens; settings: Serratia marcescens, S. marcescens GN6473
Method: (§1) The antibacterial activities were tested against various 18 bacteria (27 standard strains) which are representative bacteria caused clinically infectious disease (Staphylococcus aureus 3 strains, Staphylococcus epidermidis 1 strain, Micrococcus luteus 1 strain, Streptococcus pyogenes 1 strain, Enterococcus faecalis 1 strain, Enterococcus faecium 1 strain, Bacillus subtilis 1 strain, Escherichia coli 3 strains, Klebsiella pneumoniae 1 strain, Proteus mirabilis 1 strain, Proteus vulgaris 2 strains, Pseudomonas aeruginosa 3 strains, Serratia marcescens 2 strains, Enterobacter aerogenes 1 strain, Stenotrophomonas maltophilia 1 strain, Enterobacter cloacae 1 strain, Citrobacter freundii 1 strain, Moraxella catarrhalis 2 strains).
(§2) According to the standard method of Japan Chemotherapeutic Society (Chemotherapy, vol. […], p 76-79 (1981)) the test was carried out using the agar dilution method. After dissolving test samples in distilled water, agar medium containing the test samples was prepared in such a manner that the final concentration became twice serial dilution by pouring serially diluted combination drug solution or a single drug solution into agar medium. As agar medium was used Mueller Hinton Agar medium (MHA). Then, each strain was cultivated over night at 37° C. in an incubator and suspended in buffered saline solution with gelatin (BSG) in the concentration of about 10^6 CFU/ml. The suspension (about 5 μl) containing test strains was inoculated to the medium containing the test samples by Micro Planter.
(§3) When the sample is subjected to sensitivity test, this mixed solution was diluted by twice serial dilution method.
(§4) Furthermore, when the drug is solely used, each test sample was used as it is, and diluted by twice serial dilution method from the maximum concentration to the minimum concentration.
(§5) FIC index based on MIC value was calculated. […] Namely, when FIC index calculated by the following formula is equal or less than 1, the enhanced effect of the combination drug in said ratio is considered as positive. When FIC index is over 1, the enhanced effect of the combination drug in said ratio is considered as negative.
(§6) Formula of FIC index: FIC index=(MIC of Drug A in combination/MIC of Drug A alone)+(MIC of Drug B in combination/MIC of Drug B alone) N.C. in tables means being not calculated.

S. marcescens X 100 = experiment: Sensitivity test (agar dilution); type: cell-based, Serratia marcescens; settings: Serratia marcescens, S. marcescens X 100
Method: as §1, §2, §3, §4, §5, §6

E. coli NIHJ JC-2 = experiment: Sensitivity test (agar dilution); type: cell-based, Escherichia coli; settings: Escherichia coli, E. coli NIHJ JC-2
Method: as §1, §2, §3, §4, §5, §6

E. coli ML1410 = experiment: Sensitivity test (agar dilution); type: cell-based, Escherichia coli; settings: Escherichia coli, E. coli ML1410
Method: as §1, §2, §3, §4, §5, §6

E. coli ML1410 RP4 = experiment: microbe, parasite or virus in culture; type: cell-based, Escherichia coli; settings: Escherichia coli, E. coli ML1410 RP4
Method: as §1, §2, §3, §4, §5, §6

P. aeruginosa TL-2667 = experiment: Sensitivity test (agar dilution); type: cell-based, Pseudomonas aeruginosa; settings: Pseudomonas aeruginosa, P. aeruginosa TL-2667
Method: as §1, §2, §3, §4, §5, §6

P. aeruginosa IFO3451 = experiment: Sensitivity test (agar dilution); type: cell-based, Pseudomonas aeruginosa; settings: Pseudomonas aeruginosa, P. aeruginosa IFO3451
Method: as §1, §2, §3, §4, §5, §6

K. pneumoniae ATCC10031 = experiment: Sensitivity test (agar dilution); type: cell-based, Klebsiella pneumoniae; settings: Klebsiella pneumoniae, K. pneumoniae ATCC10031
Method: as §1, §2, §3, §4, §5, §6

E. aerogenes ATCC13048 = experiment: Sensitivity test (agar dilution); type: cell-based, Enterobacter aerogenes; settings: Klebsiella aerogenes, E. aerogenes ATCC13048
Method: as §1, §2, §3, §4, §5, §6

M. luteus ATCC9341 = experiment: Sensitivity test (agar dilution); type: cell-based, Micrococcus luteus; settings: Micrococcus luteus, M. luteus ATCC9341
Method: as §1, §2, §3, §4, §5, §6

P. mirabiris GN2425 = experiment: Sensitivity test (agar dilution); type: cell-based, Proteus mirabilis; settings: Proteus mirabilis, P. mirabiris GN2425
Method: as §1, §2, §3, §4, §5, §6

B. subtilis ATCC6633 = experiment: Sensitivity test (agar dilution); type: cell-based, Bacillus subtilis; settings: Bacillus subtilis, B. subtilis ATCC6633
Method: as §1, §2, §3, §4, §5, §6

E. faecalis ATCC19433 = experiment: Sensitivity test (agar dilution); type: cell-based, Enterococcus faecalis; settings: Enterococcus faecalis, E. faecalis ATCC19433
Method: as §1, §2, §3, §4, §5, §6

C[C@@H](O)[C@H]1C(=O)N2C(C(=O)O)=C(S[C@@H]3CN[C@H](CNS(N)(=O)=O)C3)[C@H](C)[C@H]12 [DRPM, doripenem]
MIC (S. marcescens GN6473; GN6473, Concomitant (DRPM:SM = 1:1), read-out: MIC concomitant): 0.063 µg/mL | MIC (S. marcescens GN6473; GN6473, drug alone, read-out: MIC alone): 0.063 µg/mL | MIC (S. marcescens X 100; X100, Concomitant (DRPM:SM = 1:1), read-out: MIC concomitant): 0.031 µg/mL | MIC (S. marcescens X 100; X100, drug alone, read-out: MIC alone): 0.031 µg/mL | MIC (E. coli NIHJ JC-2; NIHJJC2, Concomitant (DRPM:SM = 1:1), read-out: MIC concomitant): 0.016 µg/mL | MIC (E. coli NIHJ JC-2; NIHJJC2, drug alone, read-out: MIC alone): 0.016 µg/mL | MIC (E. coli ML1410; ML1410, Concomitant (DRPM:SM = 1:1), read-out: MIC concomitant): 0.031 µg/mL | MIC (E. coli ML1410; ML1410, drug alone, read-out: MIC alone): 0.031 µg/mL | MIC (E. coli ML1410 RP4; ML1410RP4, read-out: MIC alone, drug alone): 0.031 µg/mL | MIC (E. coli ML1410 RP4; ML1410RP4, read-out: MIC concomitant, Concomitant (DRPM:SM = 1:1)): 0.031 µg/mL | MIC (P. aeruginosa TL-2667; TL2667, Concomitant (DRPM:SM = 1:1), read-out: MIC concomitant): 2 µg/mL | MIC (P. aeruginosa TL-2667; TL2667, drug alone, read-out: MIC alone): 2 µg/mL | MIC (P. aeruginosa IFO3451; IFO3451, Concomitant (DRPM:SM = 1:1), read-out: MIC concomitant): 0.25 µg/mL | MIC (P. aeruginosa IFO3451; IFO3451, drug alone, read-out: MIC alone): 0.5 µg/mL | MIC (K. pneumoniae ATCC10031; ATCC10031, Concomitant (DRPM:SM = 1:1), read-out: MIC concomitant): 0.008 µg/mL | MIC (K. pneumoniae ATCC10031; ATCC10031, drug alone, read-out: MIC alone): 0.016 µg/mL | MIC (E. aerogenes ATCC13048; ATCC13048, Concomitant (DRPM:SM = 1:1), read-out: MIC concomitant): 0.031 µg/mL | MIC (E. aerogenes ATCC13048; ATCC13048, drug alone, read-out: MIC alone): 0.031 µg/mL | MIC (M. luteus ATCC9341; ATCC9341, Concomitant (DRPM:SM = 1:1), read-out: MIC concomitant): ≤ 0.002 µg/mL | MIC (M. luteus ATCC9341; ATCC9341, drug alone, read-out: MIC alone): 0.031 µg/mL | MIC (P. mirabiris GN2425; GN2425, Concomitant (DRPM:SM = 1:1), read-out: MIC concomitant): 0.063 µg/mL | MIC (P. mirabiris GN2425; GN2425, drug alone, read-out: MIC alone): 0.063 µg/mL | MIC (B. subtilis ATCC6633; ATCC6633, Concomitant (DRPM:SM = 1:1), read-out: MIC concomitant): ≤ 0.002 µg/mL | MIC (B. subtilis ATCC6633; ATCC6633, drug alone, read-out: MIC alone): 0.008 µg/mL | MIC (E. faecalis ATCC19433; ATCC19433, Concomitant (DRPM:SM = 1:1), read-out: MIC concomitant): 1 µg/mL | MIC (E. faecalis ATCC19433; ATCC19433, drug alone, read-out: MIC alone): 4 µg/mL
